Measurements taken from US8673907B2, “Pharmaceutically acceptable salts of methyl (3-{ [[3-(6-amino- 2-butoxy-8-oxo-7,8-dihydro-9H-purin-9-yl) propyl] (3-morpholin-4-ylpropyl) amino] methyl }phenyl) acetate and their use in therapy” (AstraZeneca AB, priority 2007, dated 2014).

What was measured:
Format in all cases: physicochemical
[1] = Particle size reduction (micronisation) in 2" Spiral Jet Mill; details: for Yield (micronisation): constant flow feed, venturi 5 bar, grind 1-2 bar
Procedure: Particle size reduction using a 2″ Spiral Jet Mill (SJM) was carried out on the following three test substances: the monohydrochloride salt according to Example 1 (invention salt), the dimaleate salt according to Example 3 (invention salt) and the free base compound, methyl (3-{[[3-(6-amino-2-butoxy-8-oxo-7,8-dihydro-9H-purin-9-yl)propyl](3-morpholin-4-ylpropyl)amino]methyl}phenyl)acetate (comparison compound).
A sieved batch of test substance was fed into the jet mill chamber, via a venturi feed system, by a vibratory feeder. Micronisation was achieved by particle collisions brought about by compressed gas (nitrogen) forced through angled nozzles in the jet mill chamber. Particles of different sizes develop different speeds and momentum and as the particle size is reduced the particles spiral towards the centre of the jet mill and exit via an exhaust into a collection bin. The process parameters that control the particle size, in addition to the inherent properties of the compound to be micronised, are the feed rate, grinding pressure and venturi pressure and these are summarised in Table I following.

[2] = Particle size measurement by laser diffraction (Malvern Scirocco) after micronisation; details: after jet milling; pressure 4 bar (comparison) or 1.5 bar (salts)
Procedure: Particle size reduction (micronisation) was performed in a jet mill in which pressurised gas was used to make the substance particles collide at high speed in order to effect particle size reduction. Particle size measurements were performed with laser diffraction using a Malvern Scirocco instrument.

[3] = Measurement of fine particle fraction (FPF) with Next Generation Impactor and HPLC; details: for Delivered amount: 60 liters/min for 2 seconds; for FPF (% < 5 μm/delivered dose), Average over NGI's: average of NGI1 and NGI2
Procedure: Measurement of FPF, starting from substance as received, was carried out according to the following series of steps:
Doses of 1-2 mg were weighed manually (without scraping) into the cavities of a prototype inhaler (see below). Two experiments were run for each test substance and two doses were used in each experiment and, thus, in total, four doses of each test substance were used in the experiments. The samples were dried in nitrogen gas atmosphere overnight before conducting the experiments.
The Next Generation Impactor, NGI, was used for the fine particle assessment. […] Two NGI impactors were used, one per experiment.
A simple prototype inhaler was used for the tests, consisting of an L-shaped cylindrical channel, comprising a vertical component and a horizontal component. The prototype inhaler was fitted via an USP-inlet to the NGI impactor. The micronised powder was transferred through the vertical channel into the bend of the prototype inhaler, (i.e. the bend of the L-shaped channel).
Each dose of 1-2 mg of powder was drawn with an airflow of 60 liters/min for 2 seconds (measured at the entrance of the induction port), entraining the powder located in the bend, and the aerosol thereafter moved through the horizontal component of the channel, through a spiral mouthpiece and into the NGI impactor.
The withdrawal and collection of the drug powders was performed in an isolator (glove) box with a relative humidity level below 2%.
The FPF's, as defined in the pharmacopoeia references above, were calculated.

| SMILES | Micronisation behaviour (build-up/blocking of mill) [1] | Yield (micronisation) [1] [%] | d(0.1) [2] [μm] | d(0.5) [2] [μm] | d(0.9) [2] [μm] | Amount particles < 5 μm, extrapolated ([3]; NGI1) [µg] | Collected in stage 3-8 (<4.5 μm) ([3]; NGI1) [µg] | FPF (% < 5 μm/delivered dose) ([3]; NGI1) [%] | Delivered amount ([3]; NGI1) [µg] | Amount particles < 5 μm, extrapolated ([3]; NGI2) [µg] | Collected in stage 3-8 (<4.5 μm) ([3]; NGI2) [µg] | FPF (% < 5 μm/delivered dose) ([3]; NGI2) [%] | Delivered amount ([3]; NGI2) [µg] | FPF (% < 5 μm/delivered dose), Average over NGI's [3] [%] |
| --- | --- | --- | --- | --- | --- | --- | --- | --- | --- | --- | --- | --- | --- | --- |
| CCCCOc1nc(N)c2[nH]c(=O)n(CCCN(CCCN3CCOCC3)Cc3cccc(CC(=O)OC)c3)c2n1 [Comparison compound, methyl (3-{[[3-(6-amino-2-butoxy-8-oxo-7,8-dihydro-9H-purin-9-yl)propyl](3-morpholin-4-ylpropyl)amino]methyl}phenyl)acetate, reference compound] | the mill became plugged | 1.7 | 0.6 | 1.7 | 4.1 | 139 | 131 | 19.3 | 720 | 189 | 178 | 13.6 | 1396 | 16.4 |
| CCCCOc1nc(N)c2[nH]c(=O)n(CCCN(CCCN3CCOCC3)Cc3cccc(CC(=O)OC)c3)c2n1.O=C(O)/C=C\C(=O)O.O=C(O)/C=C\C(=O)O [Dimaleate salt, methyl (3-{[[3-(6-amino-2-butoxy-8-oxo-7,8-dihydro-9H-purin-9-yl)propyl](3-morpholin-4-ylpropyl)amino]methyl}phenyl)acetate dimaleate] | readily micronised | 48 |  |  |  |  |  |  |  |  |  |  |  |  |
| Br.CCCCOc1nc(N)c2[nH]c(=O)n(CCCN(CCCN3CCOCC3)Cc3cccc(CC(=O)OC)c3)c2n1 [Monohydrobromide, methyl (3-{[[3-(6-amino-2-butoxy-8-oxo-7,8-dihydro-9H-purin-9-yl)propyl](3-morpholin-4-ylpropyl)amino]methyl}phenyl)acetate monohydrobromide] |  |  | 0.8 | 1.9 | 4.1 | 332 | 319 | 29.6 | 1123 | 427 | 414 | 43.8 | 975 | 36.7 |
| CCCCOc1nc(N)c2[nH]c(=O)n(CCCN(CCCN3CCOCC3)Cc3cccc(CC(=O)OC)c3)c2n1.Cl [Monohydrochloride, methyl (3-{[[3-(6-amino-2-butoxy-8-oxo-7,8-dihydro-9H-purin-9-yl)propyl](3-morpholin-4-ylpropyl)amino]methyl}phenyl)acetate monohydrochloride] | readily micronised | 85 | 0.9 | 1.8 | 3.5 | 393 | 383 | 31.3 | 1257 | 402 | 392 | 40.6 | 992 | 35.9 |
